± gives the standard deviation of the averaged measurements.
Experiments:
Experiment in all cases: level (log10 ratio to DMSO vehicle control); higher = higher biomarker level / cell amount than vehicle control
[1] = compound: C=CC(=O)OCC(F)(F)C(F)(F)C(F)(F)C(F)(F)C(F)(F)C(F)(F)C(F)(F)C(F)F [1H,1H,9H-Perfluorononyl acrylate]; settings: in DMSO
Method: (§1)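 BioMAP Diversity Plus panel of 12 human primary cell co-culture systems (3C, 4H, LPS, SAg, BT, BF4T, BE3C, CASM3C, HDF3CGF, KF3CT, MyoF, Mphg). Compounds were added 1 h before stimulation and left for 24 h (MyoF 48 h; BT 72 h for soluble read-outs or 6 d for IgG). Biomarkers were read by ELISA, cytotoxicity by SRB, PBMC viability and proliferation by Alamar Blue. Each well value was divided by the mean of 8 DMSO control wells on the same plate and log10 transformed; duplicate blinded samples were tested at 4 concentrations.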

[2] = compound: OCCC(F)(F)C(F)(F)C(F)(F)C(F)(F)C(F)(F)C(F)(F)C(F)(F)C(F)(F)F [8:2 Fluorotelomer alcohol]; settings: 6700 nM; in DMSO
Method: as §1

[3] = compound: O=C(CC(=O)C(F)(F)C(F)(F)C(F)(F)F)c1cccs1 [(Perfluorobutyryl)-2-thenoylmethane]; settings: in DMSO
Method: as §1

Tetrafluorosuccinic acid = compound: O=C(O)C(F)(F)C(F)(F)C(=O)O [Tetrafluorosuccinic acid]; settings: in DMSO
Method: as §1

[4] = compound: OCCCC(F)(F)C(F)(F)C(F)(F)C(F)(F)C(F)(F)C(F)(F)C(F)(F)C(F)(F)F [3-(Perfluorooctyl)propanol]; settings: 6700 nM; in DMSO
Method: as §1

[5] = compound: FC(F)(I)C(F)(F)C(F)(F)C(F)(F)C(F)(F)C(F)(F)I [1,6-Diiodoperfluorohexane]; settings: 6700 nM; in DMSO
Method: as §1

Perfluorooctanoic acid = compound: O=C(O)C(F)(F)C(F)(F)C(F)(F)C(F)(F)C(F)(F)C(F)(F)C(F)(F)F [Perfluorooctanoic acid]; settings: in DMSO
Method: as §1

[6] = compound: C=CC(=O)OCC(F)(F)C(F)(F)C(F)(F)C(F)(F)COC(=O)C=C [1H,1H,6H,6H-Perfluorohexane-1,6-diol diacrylate]; settings: 6700 nM; in DMSO
Method: as §1

[7] = compound: O=C(O)C(F)(F)C(F)(F)C(F)(F)C(F)(F)C(F)(F)C(F)(F)C(F)(F)F [Ammonium perfluorooctanoate]; settings: in DMSO
Method: as §1

Row | Test System | level (log10) ([1]; 6700 nM) | level (log10) ([1]; 20000 nM) | level (log10) ([1]; 60000 nM) | level (log10) [2] | level (log10) ([3]; 6700 nM) | level (log10) ([3]; 20000 nM) | level (log10) (Tetrafluorosuccinic acid; 6700 nM) | level (log10) (Tetrafluorosuccinic acid; 20000 nM) | level (log10) (Tetrafluorosuccinic acid; 60000 nM) | level (log10) [4] | level (log10) [5] | level (log10) (Perfluorooctanoic acid; 6700 nM) | level (log10) (Perfluorooctanoic acid; 20000 nM) | level (log10) (Perfluorooctanoic acid; 60000 nM) | level (log10) [6] | level (log10) ([7]; 6700 nM) | level (log10) ([7]; 20000 nM) | level (log10) ([7]; 60000 nM)
1 | 4H:CD87/uPAR | -0.024 ± 0.035 | -0.043 ± 0.028 | -0.034 ± 0.061 | -0.069 ± 0.025 | -0.006 ± 0.024 | 0.033 ± 0.0071 | -0.0355 ± 0.025 | -0.043 ± 0.035 | -0.036 ± 0.089 | -0.0615 ± 0.025 | -0.009 | -0.0695 ± 0.053 | -0.0395 ± 0.1 | -0.083 ± 0.048 | -0.04 ± 0.027 | 0.0015 ± 0.028 | 0.026 ± 0.0057 | 0.034 ± 0.023
2 | SAg:CD62E/E-Selectin | -0.0345 ± 0.016 | -0.0595 ± 0.015 | -0.121 ± 0.052 | -0.012 | -0.164 ± 0.0092 | -0.113 ± 0.02 | -0.015 | -0.003 ± 0.016 | 0.0035 ± 0.0035 | -0.014 ± 0.0099 | 0 | 0.009 ± 0.0057 | 0.015 ± 0.0085 | 0.086 ± 0.0014 | -0.15 ± 0.021 | 0.0045 ± 0.0035 | 0.02 ± 0.013 | 0.035 ± 0.0014
3 | BE3C:HLA-DR | -0.0215 ± 0.029 | -0.01 ± 0.021 | -0.0305 ± 0.012 | -0.02 | -0.044 ± 0.0028 | -0.41 ± 0.032 | -0.027 ± 0.0028 | -0.0045 ± 0.0035 | 0.004 ± 0.0014 | -0.01 ± 0.023 | -0.01 | -0.023 ± 0.0042 | -0.0225 ± 0.023 | -0.013 ± 0.034 | -0.048 ± 0.0071 | -0.019 ± 0.0071 | -0.0325 ± 0.012 | -0.068 ± 0.017
4 | 3C:CXCL9/MIG | 0.009 ± 0.0028 | 0.0005 ± 0.011 | -0.0055 ± 0.005 | -0.015 ± 0.0071 | -0.0205 ± 0.012 | -0.0255 ± 0.0021 | 0.0025 ± 0.015 | -0.0145 ± 0.012 | 0.0035 ± 0.028 | -0.0075 ± 0.0092 | -0.002 | 0.001 ± 0.021 | 0.0095 ± 0.023 | 0.0265 ± 0.022 | 0.002 ± 0.0042 | -0.006 ± 0.02 | 0.002 ± 0.0099 | 0.0285 ± 0.013
5 | BE3C:EGFR | -0.0025 ± 0.005 | 0.003 ± 0.0071 | -0.014 ± 0.023 | -0.019 ± 0.0014 | -0.0725 ± 0.029 | -0.094 ± 0.041 | -0.008 ± 0.0042 | -0.0055 ± 0.019 | 0.003 ± 0.0042 | -0.018 ± 0.0071 | -0.015 | -0.0165 ± 0.012 | -0.025 ± 0.011 | -0.018 ± 0.037 | -0.034 ± 0.0099 | -0.006 ± 0.0028 | 0.001 ± 0.028 | -0.022 ± 0.013
6 | BE3C:CD87/uPAR | 0.0055 ± 0.023 | 0.0395 ± 0.012 | 0.0365 ± 0.016 | -0.023 ± 0.041 | 0.013 ± 0.0028 | -0.007 ± 0.0014 | 0.0095 ± 0.021 | -0.0045 ± 0.00071 | 0.012 ± 0.014 | 0.02 ± 0.047 | 0.059 | -0.039 ± 0.057 | -0.028 ± 0.072 | 0.0245 ± 0.023 | 0.014 ± 0.023 | 0.0105 ± 0.022 | 0.0315 ± 0.0035 | 0.0125 ± 0.023
7 | BE3C:CXCL10/IP-10 | -0.01 ± 0.016 | 0 ± 0.0014 | -0.005 ± 0.0099 | -0.0515 ± 0.057 | -0.0615 ± 0.00071 | -0.578 ± 0.018 | -0.007 ± 0.0028 | -0.009 ± 0.0057 | -0.0125 ± 0.0035 | -0.009 ± 0.0099 | 0.008 | -0.021 ± 0.017 | -0.0275 ± 0.013 | -0.118 ± 0.022 | -0.0095 ± 0.0064 | 0.0065 ± 0.015 | -0.0135 ± 0.00071 | -0.163 ± 0.061
8 | BF4T:tPA | -0.0135 ± 0.028 | -0.006 ± 0.011 | -0.0395 ± 0.026 | -0.103 ± 0.029 | -0.122 ± 0.02 | -0.068 ± 0.018 | -0.0145 ± 0.0078 | -0.006 ± 0.034 | -0.025 ± 0.013 | 0.056 ± 0.016 | -0.119 | -0.065 ± 0.05 | -0.0715 ± 0.03 | -0.093 ± 0.031 | -0.0425 ± 0.0021 | -0.0185 ± 0.0064 | -0.041 ± 0.018 | -0.0565 ± 0.0021
